One assay deals with BACE1. Description: Screening for ALT-59 derivatives with BACE1 protein levels as indicator, U-87 MG cells. Format: cell-based. The conditions noted are these: 2 days, concentrations as indicated in FIGS. 15-17. The method, then: Additional experiments were performed to screen for compounds with higher potency and the ability to penetrate blood brain barrier using BACE1 protein levels as an indicator. U-87 MG cells were cultured as described previously and treated for 2 days with compounds at concentrations as indicated in FIGS. 15-17. Cells were then subjected to Western blotting analysis using anti-BACE1 and anti-beta-actin antibodies.

A further assay concerns Phe508del-CFTR. Briefly: Phe508del-CFTR localization, immunofluorescence microscopy, primary bronchial epithelial cells of a cystic fibrosis patient. Format: cell-based, human. Conditions: primary bronchial epithelial cells homozygous for Phe508del-CFTR, 3 days. The method, then: MDA-MB-231 and U-87 MG cells were cultured on cover slips under the conditions as described above. Cells were treated with DMSO or 4 μM ALT-59 for 3 days. Primary human bronchial epithelial cells isolated from cystic fibrosis patient homozygous for Phe508del-CFTR (Lifeline Cell Technology) were cultured on cover slips in BronchiaLife Cell Culture Medium supplemented with BrochiaLife LifeFactors Kit (Lifeline Cell Technology) and maintained at 37° C. in a CO2 incubator. Cells were treated with DMSO, 4 μM ALT-59, 2 μM ALT-308, or 4 μM ALT-410 for 3 days.
Cells were fixed in 4% paraformaldehyde for 15 minutes and permeabilized in 0.1% Triton X-100 for 2 minutes. After being blocked in 5% BSA (Sigma-Aldrich), cells were incubated with anti-CFTR antibody (Alomone Labs) followed by Alexa Fluor 488 anti-rabbit secondary antibody. Reagents were buffered in GIBCO PBS (Phosphate-Buffered Saline). Images were taken using Carl Zeiss LSM 510 Laser Scanning Microscope. Parameters were set identical for all images.

This note sets out measurements from US20230095021A1, “MODULATORS OF TDP-43” (Alteron Therapeutics, Inc., priority 2019, published 2023).

`CCCOc1ccc(C2Nc3ccc4ccccc4c3C3=C2C(=O)CCC3)cc1` (stereo not shown) [ALT-410, 5-(4-propoxyphenyl)-2,3,5,6-tetrahydrobenzo[a]phenanthridin-4(1H)-one]: the BACE1 protein expression entry in the assay on BACE1 was “capable of lowering BACE1 expression”. In addition, in the assay with Phe508del-CFTR (4 μM), the “localization of Phe508del-CFTR on the plasma membrane” value is on record as “increased localization of Phe508del-CFTR on the plasma membrane”.
`CC1(C)CC(=O)C2=C(C1)c1c(ccc3ccccc13)NC2c1ccc(C(C)(C)C)cc1` (stereo not shown) [ALT-308, 5-(4-(tert-butyl)phenyl)-2,2-dimethyl-2,3,5,6-tetrahydrobenzo[a]phenanthridin-4(1H)-one]: the BACE1 protein expression entry in the assay with BACE1 is “capable of lowering BACE1 expression”. Moreover, the “localization of Phe508del-CFTR on the plasma membrane” value in the assay on Phe508del-CFTR (2 μM) is recorded as “increased localization of Phe508del-CFTR on the plasma membrane”.
